The subject of experiment [1] is NRAS mutant melanoma cells. Briefly: Cell viability, Alamar Blue assay. Type of experiment: cell-based, Human. The method, then:
(§1) FIGS. 2a to 2c show NRAS^mut melanoma cells (FIG. 2a), BRAF-V600E/NRAS mutant cells derived from melanoma patients resistant to BRAF/MEK inhibitors (FIG. 2b), or non-transformed melanocytes and fibroblasts (FIG. 2c) were treated with 6-thio-dG for 7 days. Cell viability was measured by Alamar Blue assay and calculated relative to DMSO-treated cells. […] Cell death was assessed by PSVUe staining. Percent of apoptotic cells is shown. […] Mean TRF length expressed as kilobase pairs is indicated at the bottom. […] FIG. 2g provides a bar graph showing that DNA damage was assessed by γH2AX staining. Data represent average from three independent experiments ±SEM. *p<0.05; **p<0.01; ***p<0.005 in unpaired Student's t-test. […] Tumor volume was measured and average tumor volume (n=4) ±SEM was plotted vs. time.
(§2) Cells were seeded in 96-well plates and treated with drugs. After 6 days, cell viability was assessed following 6h incubation with […] Alamar Blue (ThermoFisherScientific, Philadelphia, Pa.) by measuring fluorescence using an EnVision Xcite Multilabel plate reader (Perkin Elmer, Waltham, Mass.). Cell death was determined by flow cytometry using PSVue-643 (Molecular Targeting Technologies) or Annexin V (640919, Biolegend, San Diego, Calif.) and Propidium Iodide (Sigma) staining. Samples were analyzed using a BD LSRII flow cytometer (BD Biosciences, San Jose, Calif.).

The subject of experiment [2] is detoxifying enzymes SOD2, GPX1 and UCP2. Briefly: mRNA levels of antioxidant enzymes by qRT-PCR. The experiment is classed as cell-based, Human. Conditions: NRAS mutant melanoma cells, 1 μM 6-thio-dG for 7 days. The method, then:
FIGS. 3a to 3g provides graphs showing that telomere dysfunction enhances oxidative stress leading to upregulation of an antioxidant program. […] Mitochondrial superoxide production was measured by MitoSox Red fluorescence (FIGS. 3c, and 3d) and expressed as fluorescence relative to vector or DMSO controls. […] FIG. 3f provides a bar graph showing that SOD2 was silenced using shRNA. Transduced M93-047 cells were treated with DMSO or 1 μM of 6-thio-dG and cell death was assessed by Annexin V/PI straining. As presented in FIG. 3g, M93-047 cells were transduced with a SOD2 lentiviral construct or empty vector control (pLX304). Transduced cells were treated with increasing doses (1, 2.5 and 5 μM) of 6-thio-dG for 7 days and cell death was assessed. Data represent average from three independent experiments ±SEM. *p<0.05; **p<0.01; ***p<0.005 in unpaired Student's t-test.
Total RNA (1 μg) was reverse transcribed using Maxima First-Strand cDNA synthesis kit (Thermo Scientific, Waltham, Mass.). Fast SYBR Green Master Mix (Applied Biosystems, Waltham, Mass.) was used with 100 ng cDNA template and 250 nM primers for the evaluation of target gene expression. Amplification was performed in triplicate using ABI PRISM 7500 Fast RT PCR System (Applied Biosystems, Waltham, Mass.) and expression of mRNA was assessed using the […].
For orientation: Real-time PCR tracks product formation cycle by cycle.

The test system of experiment [3] is non-transformed primary human fibroblasts. The experiment is described as follows: Cell viability, Alamar Blue assay. The experiment is classed as cell-based. The following applies: telomerase negative cells, 7 days. The method, then: as §1, §2
(In general: Alamar Blue is a resazurin reagent that responds to reducing activity.)

Experiment [4] deals with non-transformed primary human melanocytes. The experiment is described as follows: Cell viability, Alamar Blue assay. Type of experiment: cell-based. Conditions: telomerase negative cells, 7 days. The method, then: as §1, §2

Turning to `Nc1nc2c(ncn2[C@H]2C[C@H](O)[C@@H](CO)O2)c(=S)[nH]1` [6-thio-dG, 6-thio-2′-deoxyguanosine], the cell viability result was “impaired the viability” in experiment [1] (6-thio-dG for 7 days, relative to DMSO); “impaired the viability” in experiment [1] (cells driven by secondary mutations in NRAS from patients with acquired resistance to BRAF and MEK inhibitors, 7 days); “did not significantly affect” in experiment [3]; “did not significantly affect” in experiment [4]. The “GPX1 mRNA levels” value in experiment [2] is “upregulation”. In addition, in experiment [2], the “SOD2 mRNA levels” value is “upregulation”. The “UCP2 mRNA levels” value in experiment [2] is “upregulation”.
